In PubChem BioAssay (NCI):
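The compound was tested at five concentrations on cells cultured in 96-well plates, with a 48-hour exposure period. TGI denotes the concentration required for complete inhibition of growth.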

Columns and labels:
Assay in all cases: DTP human tumour cell line panel, 48 h
786-0 renal = system: 786-0 renal
A498 renal = system: A498 renal
A549 NSCLC = system: A549 NSCLC
ACHN renal = system: ACHN renal
BT-549 breast = system: BT-549 breast
CAKI-1 renal = system: CAKI-1 renal
CCRF-CEM leukemia = system: CCRF-CEM leukemia
COLO 205 colon = system: COLO 205 colon
DU-145 prostate = system: DU-145 prostate
EKVX NSCLC = system: EKVX NSCLC
HCC-2998 colon = system: HCC-2998 colon
HCT-116 colon = system: HCT-116 colon
HCT-15 colon = system: HCT-15 colon
HL-60(TB) leukemia = system: HL-60(TB) leukemia
HOP-62 NSCLC = system: HOP-62 NSCLC
HS 578T breast = system: HS 578T breast
HT29 colon = system: HT29 colon
IGROV1 ovarian = system: IGROV1 ovarian
K-562 leukemia = system: K-562 leukemia
KM12 colon = system: KM12 colon
LOX IMVI melanoma = system: LOX IMVI melanoma
M14 melanoma = system: M14 melanoma
MALME-3M melanoma = system: MALME-3M melanoma
MCF7 breast = system: MCF7 breast
MDA-MB-231 breast = system: MDA-MB-231 breast
MDA-MB-435 = system: MDA-MB-435
MDA-N = system: MDA-N
MOLT-4 leukemia = system: MOLT-4 leukemia
NCI-H23 lung = system: NCI-H23 lung
NCI-H460 lung = system: NCI-H460 lung
NCI-H522 lung = system: NCI-H522 lung
NCI/ADR-RES ovarian = system: NCI/ADR-RES ovarian
OVCAR-3 ovarian = system: OVCAR-3 ovarian
OVCAR-4 ovarian = system: OVCAR-4 ovarian
OVCAR-5 ovarian = system: OVCAR-5 ovarian
OVCAR-8 ovarian = system: OVCAR-8 ovarian
PC-3 prostate = system: PC-3 prostate
RPMI-8226 leukemia = system: RPMI-8226 leukemia
RXF 393 renal = system: RXF 393 renal
SF-268 CNS = system: SF-268 CNS
SF-295 CNS = system: SF-295 CNS
SF-539 CNS = system: SF-539 CNS
SK-MEL-2 melanoma = system: SK-MEL-2 melanoma
SK-MEL-28 melanoma = system: SK-MEL-28 melanoma
SK-MEL-5 melanoma = system: SK-MEL-5 melanoma
SK-OV-3 ovarian = system: SK-OV-3 ovarian
SN12C renal = system: SN12C renal
SNB-19 CNS = system: SNB-19 CNS
SNB-75 CNS = system: SNB-75 CNS
SR leukemia = system: SR leukemia
SW-620 colon = system: SW-620 colon
TK-10 renal = system: TK-10 renal
U251 CNS = system: U251 CNS
UACC-257 melanoma = system: UACC-257 melanoma
UACC-62 melanoma = system: UACC-62 melanoma
UO-31 renal = system: UO-31 renal

Measured: TGI

N=C1N(S(=O)(=O)c2ccccc2)[C@@H](Cc2ccccc2)[C@H](c2ccccc2)C1(c1ccccc1)c1ccccc1
> 100 µM: 786-0 renal | A498 renal | A549 NSCLC | ACHN renal | BT-549 breast | CAKI-1 renal | CCRF-CEM leukemia | COLO 205 colon | DU-145 prostate | EKVX NSCLC | HCC-2998 colon | HCT-116 colon | HCT-15 colon | HL-60(TB) leukemia | HOP-62 NSCLC | HS 578T breast | HT29 colon | IGROV1 ovarian | K-562 leukemia | KM12 colon | LOX IMVI melanoma | M14 melanoma | MALME-3M melanoma | MCF7 breast | MDA-MB-231 breast | MDA-MB-435 | MDA-N | MOLT-4 leukemia | NCI-H23 lung | NCI-H460 lung | NCI-H522 lung | NCI/ADR-RES ovarian | OVCAR-3 ovarian | OVCAR-4 ovarian | OVCAR-5 ovarian | OVCAR-8 ovarian | PC-3 prostate | RPMI-8226 leukemia | RXF 393 renal | SF-268 CNS | SF-295 CNS | SF-539 CNS | SK-MEL-2 melanoma | SK-MEL-28 melanoma | SK-MEL-5 melanoma | SK-OV-3 ovarian | SN12C renal | SNB-19 CNS | SNB-75 CNS | SR leukemia | SW-620 colon | TK-10 renal | U251 CNS | UACC-257 melanoma | UACC-62 melanoma | UO-31 renal
